4 compounds from patent US20240336562A1, “COMPOUND SERVING AS NLRP3 INHIBITOR” (Hangzhou Innogate Pharma Co., Ltd., priority 2021, published 2024) can be followed below.

The target in series [1] is NLRP3 (Homo sapiens (Human), UniProt Q96P20). Briefly: Inhibitory activity of NLRP3: IL1β induction in THP1 cells (PMA, LPS, nigericin) and IL1β ELISA detection. Format: cell-based. The following applies: THP-1, 300 nM compound, LPS 500 ng/mL + nigericin 10 μg/mL. The method, then:
Study of the Compound's Inhibitory Activity of NLRP3 Step 1: IL1 β Induction 60 μL/well polylysine was added to 96-well cell culture plate and incubated at 37° C. for 30 min. Discard the solution in the plate and wash the cell culture plate twice with PBS. THP1 (50000 cells/well/95 μL) was planted in cell culture plates, 5 μL of PMA was added to each well (the final concentration was 50 ng/mL), and cultured overnight in a thermostat incubator at 37° C. The supernatant was gently sucked out, the cell culture plate was washed with PBS twice, and 80 μL cell culture medium without FBS, followed by 5 μL/well LPS (final concentration 500 ng/mL) was added to each well. The plate was cultured in a thermostat incubator at 37° C. for 3 hours. […] Then 10 μL/well nigericin (final concentration 10 μg/mL) was added to the cell plate and cultured in a thermostat incubator at 37° C. for 0.5 hours. The cell supernatant was collected into a new cell plate and frozen at -80° C. for future use. Step 2: IL1 β detection IL1β antibody was diluted 60 times with coating buffer, and 100 μL of diluted antibody was added to each well of ELISA plate, and incubated at 4° C. overnight. Discard the liquid in the ELISA plate and wash it 4 times with eluent. Add 300 μL/well reagent diluent and incubate the ELISA plate at room temperature for 1.5 hours. Wash the plate with eluent for four times. […] Wash the plate with eluent for four times. Each well was added with 100 μL detection antibody and incubated at 37° C. for 2 h. Wash the plate with eluent for four times. Add 100 μL of HRP labeled secondary antibody to each well. Incubate at 37° C. for 1 hour. Wash the plate with eluent for four times. Add 100 μL of A+B substrate per well. Incubate at 37° C. for 30 minutes. Add 100 μL STOP solution per well. Gently shake the plate for a few seconds. Read the absorption value at 450 nm on the EnVision multifunction reader and calculate the Inhibitory rate according to the following formula: Inhibition %=([…]). […] The log value of concentration was taken as the X-axis and the percentage inhibitory rate as the Y-axis. […]
On the technique in general: An ELISA detects its analyte on a solid surface through an enzyme-linked reagent.

Series [2] in a line: Pharmacokinetic study in rats after intragastrical administration. Format: in vivo. The following applies: rat, male SD rats, oral 3 mg/kg, plasma. The protocol: Pharmacokinetic Study in Rats
Instruments: XEVO TQ-S LC/MS instrument produced by Waters. All measurement data is collected and processed by Masslynx V4.1 software, and the data is calculated and processed by Microsoft Excel. Using WinNonLin 8.0 software, the statistical moment method was used to calculate the pharmacokinetic parameters. Mainly include kinetic parameters Tmax, T1/2, Cmax, AUClast etc. Column: ACQUITY UPLC BEH C18 (2.1 mm×50 mm, 1.7 μm); column temperature 40° C.; mobile phase A is water (0.1% formic acid), mobile phase B is acetonitrile, flow rate is 0.350 ml/min, gradient elution is adopted, the elution gradient is 0.50 min: 10% B; 1.50 min: 90% B; 2.50 min: 90% B; 2.51 min: 10% B; 3.50 min: stop. Injection volume: 1 μL.
Animals: 3 male SD rats with a weight range of 200-220 g. After purchase, they will be kept in the laboratory of the Experimental Animal Center for 2 days and then used. They will be fasted for 12 hours predose and 4 hours after dosing. Drinking water is free during the test. After the rats were gavage, blood samples were taken according to the established time point.
Solvent: 0.4% ethanol+0.4% Tween80+99.2% (0.5% methylcellulose M450). Preparation of the solution for intragastrical administration: accurately weigh the compound, add it to the solvent, and use ultrasound at room temperature for 5 minutes to completely dissolve the drug, and prepare a 0.3 mg/mL medicinal solution.
Pharmaceutical samples: Generally, multiple samples with similar structures (with a molecular weight difference of more than 2 units) are taken, accurately weighed, and administered together (cassette PK). In this way, multiple compounds can be screened at the same time and their oral absorption rates can be compared. A single administration was also used to study the pharmacokinetics of the drug sample in rats.
After intragastrical administration, blood was taken from the orbit at 0.25, 0.5, 1, 2, 4, 8, 10 and 24 hours. Then take 50 μL of the plasma sample, add 200 μL of acetonitrile (including internal standard control verapamil 2 ng/mL), vortex for 3 min and centrifuge at 20000 ref, 4° C. for 10 min. The supernatant plasma was used for LC-MS/MS analysis.
Accurately weigh the compounds to prepare different concentrations, perform quantitative analysis on mass spectrometry to establish a standard curve, and then test the concentration of the above-mentioned compound in the plasma to obtain the compound concentration at different time points. All measurement data are collected and processed by relevant software, and the statistical moment method is used to calculate the pharmacokinetic parameters (mainly including kinetic parameters Tmax, T1/2, Cmax, AUClast etc).

NLRP3, sequence (Q96P20 whole entry): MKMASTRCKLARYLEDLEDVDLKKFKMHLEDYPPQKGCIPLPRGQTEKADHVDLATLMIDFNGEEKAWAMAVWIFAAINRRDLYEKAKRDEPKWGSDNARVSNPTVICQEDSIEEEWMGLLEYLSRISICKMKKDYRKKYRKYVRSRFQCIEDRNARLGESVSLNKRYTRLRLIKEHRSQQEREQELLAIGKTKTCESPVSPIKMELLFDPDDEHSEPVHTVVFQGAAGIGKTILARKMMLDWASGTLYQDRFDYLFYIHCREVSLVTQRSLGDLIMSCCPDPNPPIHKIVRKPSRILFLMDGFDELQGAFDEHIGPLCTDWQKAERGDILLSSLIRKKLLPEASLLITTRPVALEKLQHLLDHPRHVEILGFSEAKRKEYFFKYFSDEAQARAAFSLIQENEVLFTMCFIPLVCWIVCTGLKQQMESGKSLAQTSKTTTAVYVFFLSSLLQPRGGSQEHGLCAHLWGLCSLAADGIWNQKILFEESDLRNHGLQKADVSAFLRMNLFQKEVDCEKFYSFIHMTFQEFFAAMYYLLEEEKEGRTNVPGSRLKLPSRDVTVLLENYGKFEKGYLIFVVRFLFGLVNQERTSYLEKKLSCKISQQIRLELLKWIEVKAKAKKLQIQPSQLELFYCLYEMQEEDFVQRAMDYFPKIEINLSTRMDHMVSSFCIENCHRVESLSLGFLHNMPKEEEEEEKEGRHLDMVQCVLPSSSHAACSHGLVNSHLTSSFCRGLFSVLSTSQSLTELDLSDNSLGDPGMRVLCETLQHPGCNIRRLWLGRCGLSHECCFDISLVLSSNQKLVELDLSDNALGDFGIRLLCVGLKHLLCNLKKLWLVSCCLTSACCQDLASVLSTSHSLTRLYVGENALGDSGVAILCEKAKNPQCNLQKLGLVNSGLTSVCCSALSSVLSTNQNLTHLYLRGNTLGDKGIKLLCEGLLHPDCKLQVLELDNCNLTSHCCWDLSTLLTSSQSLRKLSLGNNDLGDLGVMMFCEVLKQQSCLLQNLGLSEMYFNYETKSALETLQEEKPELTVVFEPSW

In the case of `Cc1cc2c(c(NC(=O)NS(=O)(=O)C3CC3)c1-c1ccnc(OCC3=CCCN(C)C3)c1)CCC2` [Compound 6], in series [1], the inhibition (commonly the drop in the measured response relative to a control, in per cent) at 0.3 µM was over 50%.

Take `Cc1cc2c(c(NC(=O)NS(C)(=O)=O)c1-c1ccnc(OCC3=CCN(C)CC3)c1)CCC2` [Compound 1]: in series [1], the inhibition at 0.3 µM is over 50%.

As to `Cc1cc2c(c(NC(=O)NS(=O)(=O)N(C)C)c1-c1ccnc(OCC3=CCCN(C)C3)c1)CCC2` [Compound 7], in series [1], the inhibition at 0.3 µM is over 50%.

On to `COc1cc(-c2c(C)cc3c(c2NC(=O)NS(=O)(=O)c2ccn(C4CC(=C(F)F)C4)n2)CCC3)ccn1` (stereo not shown) [Compound 22], for which, in series [2], the Cmax (in general, the peak of the concentration-time curve) amounted to 1530 ng/mL; the Tmax – broadly, the time at which the peak concentration occurs – came out at 1 h; the half-life (in general, the time in which the quantity being followed falls by half) was 5.6 h. The AUC(0-t) in series [2] (read-out: AUC(0-24)) is 6710 ng·h/mL.
